From US12295936B2, “Immunomodulating urea azalides” (Zoetis Services LLC, priority 2020, dated 2025)

System: BRD pathogens, M. haemolytica and P. multocida
Assay: MIC screening panel of BRD pathogens (antibacterial / non-antibacterial)
Conditions: for MIC: read-out: antibacterial / non-antibacterial (MIC for the BRD pathogens)

| Compound | MIC | MIC ≤64 μg/mL for at least one BRD bacterial strain (flag * at Ex #) (Table H, Formula (1-A1) compounds) |
| --- | --- | --- |
| CCCN(C[C@]1(O)[C@H](C)O[C@@H](O[C@H]2[C@H](C)[C@@H](O[C@@H]3O[C@H](C)C[C@H](N(C)C(=O)N(C)c4ccccc4)[C@H]3O)[C@](C)(O)C[C@@H](C)CN[C@H](C)[C@@H](O)[C@](C)(O)[C@@H](CC)OC(=O)[C@@H]2C)C[C@@]1(C)OC)C(=O)N(C)c1ccccc1 [Example H-63, 1-((2S,3R,4S,6R)-2-(((2R,3S,4R,5R,8R,10R,11R,12S,13S,14R)-2-ethyl-3,4,10-trihydroxy-13-(((2R,4R,5S,6S)-5-hydroxy-4-methoxy-4,6-dimethyl-5-((3-methyl-3-phenyl-1-propylureido)methyl)tetrahydro-2H-pyran-2-yl)oxy)-3,5,8,10,12,14-hexamethyl-15-oxo-1-oxa-6-azacyclopentadecan-11-yl)oxy)-3-hydroxy-6-methyltetrahydro-2H-pyran-4-yl)-1,3-dimethyl-3-phenylurea] | > 64 µg/mL | – |
| CCCNC[C@]1(O)[C@H](C)O[C@@H](O[C@H]2[C@H](C)[C@@H](O[C@@H]3O[C@H](C)C[C@H](N(C)C(=O)Nc4cccc(C#N)c4)[C@H]3O)[C@](C)(O)C[C@@H](C)CN[C@H](C)[C@@H](O)[C@](C)(O)[C@@H](CC)OC(=O)[C@@H]2C)C[C@@]1(C)OC [Example H-79, 3-(3-cyanophenyl)-1-((2S,3R,4S,6R)-2-(((2R,3S,4R,5R,8R,10R,11R,12S,13S,14R)-2-ethyl-3,4,10-trihydroxy-13-(((2R,4R,5S,6S)-5-hydroxy-4-methoxy-4,6-dimethyl-5-((propylamino)methyl)tetrahydro-2H-pyran-2-yl)oxy)-3,5,8,10,12,14-hexamethyl-15-oxo-1-oxa-6-azacyclopentadecan-11-yl)oxy)-3-hydroxy-6-methyltetrahydro-2H-pyran-4-yl)-1-methylurea] | > 64 µg/mL | – |
| CCCNC[C@]1(O)[C@H](C)O[C@@H](O[C@H]2[C@H](C)[C@@H](O[C@@H]3O[C@H](C)C[C@H](N(C)C(=O)Nc4ccccc4Cl)[C@H]3O)[C@](C)(O)C[C@@H](C)CN[C@H](C)[C@@H](O)[C@](C)(O)[C@@H](CC)OC(=O)[C@@H]2C)C[C@@]1(C)OC [Example H-80, 3-(2-chlorophenyl)-1-((2S,3R,4S,6R)-2-(((2R,3S,4R,5R,8R,10R,11R,12S,13S,14R)-2-ethyl-3,4,10-trihydroxy-13-(((2R,4R,5S,6S)-5-hydroxy-4-methoxy-4,6-dimethyl-5-((propylamino)methyl)tetrahydro-2H-pyran-2-yl)oxy)-3,5,8,10,12,14-hexamethyl-15-oxo-1-oxa-6-azacyclopentadecan-11-yl)oxy)-3-hydroxy-6-methyltetrahydro-2H-pyran-4-yl)-1-methylurea] | > 64 µg/mL | – |
| CCCNC[C@]1(O)[C@H](C)O[C@@H](O[C@H]2[C@H](C)[C@@H](O[C@@H]3O[C@H](C)C[C@H](N(C)C(=O)Nc4ccccc4F)[C@H]3O)[C@](C)(O)C[C@@H](C)CN[C@H](C)[C@@H](O)[C@](C)(O)[C@@H](CC)OC(=O)[C@@H]2C)C[C@@]1(C)OC [Example H-82, 1-((2S,3R,4S,6R)-2-(((2R,3S,4R,5R,8R,10R,11R,12S,13S,14R)-2-ethyl-3,4,10-trihydroxy-13-(((2R,4R,5S,6S)-5-hydroxy-4-methoxy-4,6-dimethyl-5-((propylamino)methyl)tetrahydro-2H-pyran-2-yl)oxy)-3,5,8,10,12,14-hexamethyl-15-oxo-1-oxa-6-azacyclopentadecan-11-yl)oxy)-3-hydroxy-6-methyltetrahydro-2H-pyran-4-yl)-3-(2-fluorophenyl)-1-methylurea] | > 64 µg/mL | – |
| CCCNC[C@]1(O)[C@H](C)O[C@@H](O[C@H]2[C@H](C)[C@@H](O[C@@H]3O[C@H](C)C[C@H](N(C)C(=O)Nc4ccc(Cl)cc4)[C@H]3O)[C@](C)(O)C[C@@H](C)CN[C@H](C)[C@@H](O)[C@](C)(O)[C@@H](CC)OC(=O)[C@@H]2C)C[C@@]1(C)OC [Example H-84, 3-(4-chlorophenyl)-1-((2S,3R,4S,6R)-2-(((2R,3S,4R,5R,8R,10R,11R,12S,13S,14R)-2-ethyl-3,4,10-trihydroxy-13-(((2R,4R,5S,6S)-5-hydroxy-4-methoxy-4,6-dimethyl-5-((propylamino)methyl)tetrahydro-2H-pyran-2-yl)oxy)-3,5,8,10,12,14-hexamethyl-15-oxo-1-oxa-6-azacyclopentadecan-11-yl)oxy)-3-hydroxy-6-methyltetrahydro-2H-pyran-4-yl)-1-methylurea] | > 64 µg/mL | – |
| CCCNC[C@]1(O)[C@H](C)O[C@@H](O[C@H]2[C@H](C)[C@@H](O[C@@H]3O[C@H](C)C[C@H](N(C)C(=O)Nc4cccc(F)c4)[C@H]3O)[C@](C)(O)C[C@@H](C)CN[C@H](C)[C@@H](O)[C@](C)(O)[C@@H](CC)OC(=O)[C@@H]2C)C[C@@]1(C)OC [Example H-85, 1-((2S,3R,4S,6R)-2-(((2R,3S,4R,5R,8R,10R,11R,12S,13S,14R)-2-ethyl-3,4,10-trihydroxy-13-(((2R,4R,5S,6S)-5-hydroxy-4-methoxy-4,6-dimethyl-5-((propylamino)methyl)tetrahydro-2H-pyran-2-yl)oxy)-3,5,8,10,12,14-hexamethyl-15-oxo-1-oxa-6-azacyclopentadecan-11-yl)oxy)-3-hydroxy-6-methyltetrahydro-2H-pyran-4-yl)-3-(3-fluorophenyl)-1-methylurea] | > 64 µg/mL | – |
| CCCNC[C@]1(O)[C@H](C)O[C@@H](O[C@H]2[C@H](C)[C@@H](O[C@@H]3O[C@H](C)C[C@H](N(C)C(=O)Nc4cccc(OC)c4)[C@H]3O)[C@](C)(O)C[C@@H](C)CN[C@H](C)[C@@H](O)[C@](C)(O)[C@@H](CC)OC(=O)[C@@H]2C)C[C@@]1(C)OC [Example H-86, 1-((2S,3R,4S,6R)-2-(((2R,3S,4R,5R,8R,10R,11R,12S,13S,14R)-2-ethyl-3,4,10-trihydroxy-13-(((2R,4R,5S,6S)-5-hydroxy-4-methoxy-4,6-dimethyl-5-((propylamino)methyl)tetrahydro-2H-pyran-2-yl)oxy)-3,5,8,10,12,14-hexamethyl-15-oxo-1-oxa-6-azacyclopentadecan-11-yl)oxy)-3-hydroxy-6-methyltetrahydro-2H-pyran-4-yl)-3-(3-methoxyphenyl)-1-methylurea] | > 64 µg/mL | – |
| CCCNC[C@]1(O)[C@H](C)O[C@@H](O[C@H]2[C@H](C)[C@@H](O[C@@H]3O[C@H](C)C[C@H](N(C)C(=O)NC)[C@H]3O)[C@](C)(O)C[C@@H](C)CN[C@H](C)[C@@H](O)[C@](C)(O)[C@@H](CC)OC(=O)[C@@H]2C)C[C@@]1(C)OC [Example H-92, 1-((2S,3R,4S,6R)-2-(((2R,3S,4R,5R,8R,10R,11R,12S,13S,14R)-2-ethyl-3,4,10-trihydroxy-13-(((2R,4R,5S,6S)-5-hydroxy-4-methoxy-4,6-dimethyl-5-((propylamino)methyl)tetrahydro-2H-pyran-2-yl)oxy)-3,5,8,10,12,14-hexamethyl-15-oxo-1-oxa-6-azacyclopentadecan-11-yl)oxy)-3-hydroxy-6-methyltetrahydro-2H-pyran-4-yl)-1,3-dimethylurea] | > 64 µg/mL | – |
| CCCNC(=O)N(C)[C@H]1C[C@@H](C)O[C@@H](O[C@@H]2[C@@H](C)[C@H](O[C@H]3C[C@@](C)(OC)[C@](O)(CNC4CC4)[C@H](C)O3)[C@@H](C)C(=O)O[C@H](CC)[C@@](C)(O)[C@H](O)[C@@H](C)NC[C@H](C)C[C@@]2(C)O)[C@@H]1O [Example H-93, 1-((2S,3R,4S,6R)-2-(((2R,3S,4R,5R,8R,10R,11R,12S,13S,14R)-13-(((2R,4R,5S,6S)-5-((cyclopropylamino)methyl)-5-hydroxy-4-methoxy-4,6-dimethyltetrahydro-2H-pyran-2-yl)oxy)-2-ethyl-3,4,10-trihydroxy-3,5,8,10,12,14-hexamethyl-15-oxo-1-oxa-6-azacyclopentadecan-11-yl)oxy)-3-hydroxy-6-methyltetrahydro-2H-pyran-4-yl)-1-methyl-3-propylurea] | > 64 µg/mL | – |
| CCCNC(=O)N(C)[C@H]1C[C@@H](C)O[C@@H](O[C@@H]2[C@@H](C)[C@H](O[C@H]3C[C@@](C)(OC)[C@](O)(CNC4CCC4)[C@H](C)O3)[C@@H](C)C(=O)O[C@H](CC)[C@@](C)(O)[C@H](O)[C@@H](C)NC[C@H](C)C[C@@]2(C)O)[C@@H]1O [Example H-94, 1-((2S,3R,4S,6R)-2-(((2R,3S,4R,5R,8R,10R,11R,12S,13S,14R)-13-(((2R,4R,5S,6S)-5-((cyclobutylamino)methyl)-5-hydroxy-4-methoxy-4,6-dimethyltetrahydro-2H-pyran-2-yl)oxy)-2-ethyl-3,4,10-trihydroxy-3,5,8,10,12,14-hexamethyl-15-oxo-1-oxa-6-azacyclopentadecan-11-yl)oxy)-3-hydroxy-6-methyltetrahydro-2H-pyran-4-yl)-1-methyl-3-propylurea] | > 64 µg/mL | – |
| CCCNC[C@]1(O)[C@H](C)O[C@@H](O[C@H]2[C@H](C)[C@@H](O[C@@H]3O[C@H](C)C[C@H](N(C)C(=O)NCCN4CCCCC4)[C@H]3O)[C@](C)(O)C[C@@H](C)CN[C@H](C)[C@@H](O)[C@](C)(O)[C@@H](CC)OC(=O)[C@@H]2C)C[C@@]1(C)OC [Example H-98, 1-((2S,3R,4S,6R)-2-(((2R,3S,4R,5R,8R,10R,11R,12S,13S,14R)-2-ethyl-3,4,10-trihydroxy-13-(((2R,4R,5S,6S)-5-hydroxy-4-methoxy-4,6-dimethyl-5-((propylamino)methyl)tetrahydro-2H-pyran-2-yl)oxy)-3,5,8,10,12,14-hexamethyl-15-oxo-1-oxa-6-azacyclopentadecan-11-yl)oxy)-3-hydroxy-6-methyltetrahydro-2H-pyran-4-yl)-1-methyl-3-(2-(piperidin-1-yl)ethyl)urea] | – | H-98* (*MIC ≤64 μg/mL for at least one BRD bacterial strain) |
| CCCNC[C@]1(O)[C@H](C)O[C@@H](O[C@H]2[C@H](C)[C@@H](O[C@@H]3O[C@H](C)C[C@H](N(C)C(=O)N(C)c4ccc(O)cc4)[C@H]3O)[C@](C)(O)C[C@@H](C)CN[C@H](C)[C@@H](O)[C@](C)(O)[C@@H](CC)OC(=O)[C@@H]2C)C[C@@]1(C)OC [Example H-99, 1-((2S,3R,4S,6R)-2-(((2R,3S,4R,5R,8R,10R,11R,12S,13S,14R)-2-ethyl-3,4,10-trihydroxy-13-(((2R,4R,5S,6S)-5-hydroxy-4-methoxy-4,6-dimethyl-5-((propylamino)methyl)tetrahydro-2H-pyran-2-yl)oxy)-3,5,8,10,12,14-hexamethyl-15-oxo-1-oxa-6-azacyclopentadecan-11-yl)oxy)-3-hydroxy-6-methyltetrahydro-2H-pyran-4-yl)-3-(4-hydroxyphenyl)-1,3-dimethylurea] | > 64 µg/mL | – |
